Measurements published in patent US12391679B2, “Benzamide-substituted bicyclic imidazo- and pyrazolo-fused -pyridine, -pyrimide, and -pyridazine compounds for treatment of inflammatory diseases” (ONCO3R Therapeutics BV, priority 2019, dated 2025).

Tests used:
Format in all cases: biochemical
[1] = target: T1, SIK2 (Homo sapiens, UniProt Q9H0K1); experiment: 33P radioactive kinase assay, SIK2; also: AMARA 5 µM, 10 µM ATP
T1 construct: purchased ThermoFisher Scientific PV4792
Method: (§1) The principle of the ^33P radioactive kinase assay consists in measuring the incorporated ^33P into the substrate AMARA peptide when phosphorylated by SIK1, SIK2 or SIK3 using [^33P]-g-ATP, which correlates with kinase activity.
(§2) The test compounds are prepared as a serial dilution of 10 point dose responses with 1/5 dilution steps in 100% DMSO starting from 2 mM highest concentration, diluted 1/20 in water and 5 μL is transferred to the assay plates (Greiner, Cat #651201).
(§3) 1% DMSO and 10 μM staurosporine final concentrations are used as negative and positive controls.
(§4) 11 μL of enzyme-substrate mixture is added on the assay plates. The reactions are started by adding 9 μL ATP mixture, consisting of non-labeled and ^33P-labeled ATP, on the assay plates.
(§5) The reactions are stopped by adding 25 μL phosphoric acid (150 mM) to the reactions.
(§6) The completely terminated kinase reactions are transferred using a harvester on pre-wetted UniFilter-96 plates (UniFilter-96 GF/B, PerkinElmer Inc., Cat #6005177).
(§7) After harvesting the kinase reactions, the filter plates are washed 6 times with phosphoric acid (75 mM). The back of the UniFilter-96 plates are sealed and 40 μL MicroScint-20 (PerkinElmer Inc., Cat #6013621) is added to each well. The top of the plates are sealed with TopSeal-A. Read-out is performed with a TopCount instrument (PerkinElmer Inc.).
(§8) Raw data are generated following the read-out performed on the TopCount, plotted to generate dose response curves to calculate percentage inhibition (PIN) and average IC50 for each SIK homologue which are reported in the table below.

[2] = target: T2, SIK3 (Homo sapiens, UniProt Q9Y2K2); experiment: 33P radioactive kinase assay, SIK3; conditions: 33P radioactive assay; AMARA 7 μM; 15 μM ATP; 80 min; average IC50
T2 construct: purchased SignalChem S12-11G-100
T2 sequence (Q9Y2K2 59-365 limits assumed): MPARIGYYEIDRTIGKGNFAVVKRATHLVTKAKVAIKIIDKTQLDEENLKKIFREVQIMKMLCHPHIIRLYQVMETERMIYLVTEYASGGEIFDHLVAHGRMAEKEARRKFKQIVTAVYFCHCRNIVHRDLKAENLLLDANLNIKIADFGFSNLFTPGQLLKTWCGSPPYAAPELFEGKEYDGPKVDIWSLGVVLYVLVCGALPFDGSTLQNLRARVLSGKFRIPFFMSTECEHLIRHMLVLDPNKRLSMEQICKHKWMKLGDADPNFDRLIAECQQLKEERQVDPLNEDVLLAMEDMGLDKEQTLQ
Method: as §1, §2, §3, §4, §5, §6, §7, §8

[3] = target: T3, SIK1 (Homo sapiens, UniProt P57059); experiment: 33P radioactive kinase assay, SIK1
T3 construct: purchased Carna Biosciences 02-131
T3 sequence (P57059 whole entry): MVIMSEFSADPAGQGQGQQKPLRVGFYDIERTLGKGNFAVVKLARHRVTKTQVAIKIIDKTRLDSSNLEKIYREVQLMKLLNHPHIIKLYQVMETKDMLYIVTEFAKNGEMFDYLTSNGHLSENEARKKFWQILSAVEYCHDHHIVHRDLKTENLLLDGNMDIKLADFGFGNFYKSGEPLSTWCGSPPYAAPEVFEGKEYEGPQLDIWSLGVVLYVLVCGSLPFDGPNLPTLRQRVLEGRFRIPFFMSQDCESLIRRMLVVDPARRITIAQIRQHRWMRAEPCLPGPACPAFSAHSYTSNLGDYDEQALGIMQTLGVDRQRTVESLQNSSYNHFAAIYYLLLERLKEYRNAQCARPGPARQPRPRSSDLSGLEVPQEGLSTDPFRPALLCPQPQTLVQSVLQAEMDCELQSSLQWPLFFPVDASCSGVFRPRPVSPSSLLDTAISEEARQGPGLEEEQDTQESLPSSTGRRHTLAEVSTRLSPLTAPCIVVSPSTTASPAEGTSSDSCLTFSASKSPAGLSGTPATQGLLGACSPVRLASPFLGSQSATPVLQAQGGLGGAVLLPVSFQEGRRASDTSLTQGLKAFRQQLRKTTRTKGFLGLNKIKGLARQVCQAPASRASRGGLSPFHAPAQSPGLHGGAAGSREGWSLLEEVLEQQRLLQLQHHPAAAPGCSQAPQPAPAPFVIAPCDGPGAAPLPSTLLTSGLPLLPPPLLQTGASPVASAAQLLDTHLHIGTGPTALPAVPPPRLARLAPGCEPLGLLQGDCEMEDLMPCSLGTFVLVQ
Method: as §1, §2, §3, §4, §5, §6, §7, §8

[4] = target: T1, SIK2; experiment: ADP-Glo kinase assay, SIK2
Summary of the method: (§9)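 Kinase reactions ran 120 min at room temperature after ATP addition to enzyme-substrate mix. Remaining ATP was depleted (40 min) and ADP converted to ATP for luciferase detection (30 min), signal rising with activity. Final 1% DMSO and 10 μM staurosporine served as negative and positive controls.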

[5] = target: T2, SIK3; experiment: ADP-Glo kinase assay, SIK3
Summary of the method: as §9

[6] = target: T3, SIK1; experiment: ADP-Glo kinase assay, SIK1
Summary of the method: as §9

T1 sequence (Q9H0K1 whole entry): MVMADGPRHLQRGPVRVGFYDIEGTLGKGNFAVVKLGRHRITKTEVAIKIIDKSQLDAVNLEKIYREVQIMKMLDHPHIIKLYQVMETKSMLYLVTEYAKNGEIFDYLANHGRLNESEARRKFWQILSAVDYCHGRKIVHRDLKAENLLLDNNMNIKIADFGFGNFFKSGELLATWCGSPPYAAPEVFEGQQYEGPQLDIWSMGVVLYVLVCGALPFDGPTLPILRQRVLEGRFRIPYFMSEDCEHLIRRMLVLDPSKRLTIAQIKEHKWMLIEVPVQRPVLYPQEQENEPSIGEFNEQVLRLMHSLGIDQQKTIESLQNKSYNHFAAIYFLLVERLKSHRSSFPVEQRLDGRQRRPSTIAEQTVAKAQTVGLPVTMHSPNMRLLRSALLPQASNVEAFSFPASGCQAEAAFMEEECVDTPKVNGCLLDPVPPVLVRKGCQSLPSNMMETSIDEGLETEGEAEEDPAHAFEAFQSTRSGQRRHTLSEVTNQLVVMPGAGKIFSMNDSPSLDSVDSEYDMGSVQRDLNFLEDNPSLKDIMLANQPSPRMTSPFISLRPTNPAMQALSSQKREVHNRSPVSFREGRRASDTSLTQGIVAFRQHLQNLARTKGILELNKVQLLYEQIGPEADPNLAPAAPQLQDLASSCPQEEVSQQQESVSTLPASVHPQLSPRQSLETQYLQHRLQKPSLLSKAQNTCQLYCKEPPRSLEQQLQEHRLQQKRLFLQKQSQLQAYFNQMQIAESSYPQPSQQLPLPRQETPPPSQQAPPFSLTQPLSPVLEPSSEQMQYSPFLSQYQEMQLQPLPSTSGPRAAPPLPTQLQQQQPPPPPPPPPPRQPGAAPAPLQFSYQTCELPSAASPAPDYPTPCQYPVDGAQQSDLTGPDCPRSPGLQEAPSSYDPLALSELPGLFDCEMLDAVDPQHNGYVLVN

SMILES	IC50 [1] [nM]	IC50 [2] [nM]	IC50 [3] [nM]	IC50 [4] [nM]	IC50 [5] [nM]	IC50 [6] [nM]
COc1cc(-n2cnc3cc(C4CCCN(C(=O)OC(C)(C)C)C4)ccc32)cc(OC)c1C(=O)NCC(F)(F)F (stereo not drawn) [Cpd 7, tert-butyl 3-[1-[3,5-dimethoxy-4-(2,2,2-trifluoroethylcarbamoyl)phenyl]benzimidazol-5-yl]piperidine-1-carboxylate]	> 500	> 500	> 500			
COc1cc(-n2cnc3cc(C4CCCNC4)ccc32)cc(OC)c1C(=O)NCC(F)(F)F (stereo not drawn) [Cpd 8, 2,6-dimethoxy-4-[5-(3-piperidyl)benzimidazol-1-yl]-N-(2,2,2-trifluoroethyl)benzamide]	> 500	100 to 500	> 500			
COc1cc(-n2cnc3cc(C4CCCN(CC#N)C4)ccc32)cc(OC)c1C(=O)NCC(F)(F)F (stereo not drawn) [Cpd 9, 4-[5-[1-(cyanomethyl)-3-piperidyl]benzimidazol-1-yl]-2,6-dimethoxy-N-(2,2,2-trifluoroethyl)benzamide]	> 500	100 to 500	> 500			
COc1cc(-n2cnc3cc(C(C)(C)C#N)ccc32)cc(OC)c1C(=O)NCC(F)(F)F [Cpd 10, 4-[5-(1-cyano-1-methyl-ethyl)benzimidazol-1-yl]-2,6-dimethoxy-N-(2,2,2-trifluoroethyl)benzamide]	> 500	100 to 500	> 500	> 500	100 to 500	> 500
COc1cc(-n2cnc3cc(C(C)(C)C#N)ccc32)cc(OC)c1C(=O)NC1CC1 [Cpd 11, 4-[5-(1-cyano-1-methyl-ethyl)benzimidazol-1-yl]-N-cyclopropyl-2,6-dimethoxy-benzamide]	> 500	> 500	> 500	> 500	100 to 500	> 500
COc1cc(-n2cnc3cc(C(C)(C)C#N)ccc32)cc(OC(F)F)c1C(=O)NC1CC1 [Cpd 12, 4-[5-(1-cyano-1-methyl-ethyl)benzimidazol-1-yl]-N-cyclopropyl-2-(difluoromethoxy)-6-methoxy-benzamide]	> 500	100 to 500	> 500			
COc1cc(-n2cnc3cc(C4(C#N)CCC4)ccc32)cc(OC)c1C(=O)NCC(F)(F)F [Cpd 13, 4-[5-(1-cyanocyclobutyl)benzimidazol-1-yl]-2,6-dimethoxy-N-(2,2,2-trifluoroethyl)benzamide]	> 500	> 500	> 500			
COc1cc(-n2cnc3cc(C4(C#N)CCC4)ccc32)cc(OC)c1C(=O)NC1CC1 [Cpd 14, 4-[5-(1-cyanocyclobutyl)benzimidazol-1-yl]-N-cyclopropyl-2,6-dimethoxy-benzamide]	> 500	> 500	> 500			
COc1cc(-n2cnc3cc(C(C)C#N)ccc32)cc(OC)c1C(=O)NCC(F)(F)F (stereo not drawn) [Cpd 15, 4-[5-(1-cyanoethyl)benzimidazol-1-yl]-2,6-dimethoxy-N-(2,2,2-trifluoroethyl)benzamide]	> 500	> 500	> 500			
COc1cc(-c2cnc3cc(C(C)(C)C#N)ccn23)cc(OC)c1C(=O)N1CC(F)(F)C1 [Cpd 18, 2-[3-[4-(3,3-difluoroazetidine-1-carbonyl)-3,5-dimethoxy-phenyl]imidazo[1,2-a]pyridin-7-yl]-2-methyl-propanenitrile]	> 500	10 to 100	> 500	> 500	10 to 100	> 500
COc1cc(-c2cnc3cc(C4CCCN(C(=O)OC(C)(C)C)C4)ccn23)cc(OC)c1C(=O)NCC(F)(F)F (stereo not drawn) [Cpd 21, tert-butyl 3-[3-[3,5-dimethoxy-4-(2,2,2-trifluoroethylcarbamoyl)phenyl]imidazo[1,2-a]pyridin-7-yl]piperidine-1-carboxylate]	100 to 500	10 to 100	> 500			
COc1cc(-c2cnc3cc(C4CCN(C)CC4)ccn23)cc(OC)c1C(=O)NCC(F)(F)F [Cpd 22, 2,6-dimethoxy-4-[7-(1-methyl-4-piperidyl)imidazo[1,2-a]pyridin-3-yl]-N-(2,2,2-trifluoroethyl)benzamide]	100 to 500	10 to 100	> 500	100 to 500	10 to 100	> 500
COc1cc(-c2cnc3cc(C4CCCNC4)ccn23)cc(OC)c1C(=O)NCC(F)(F)F (stereo not drawn) [Cpd 23, 2,6-dimethoxy-4-[7-(3-piperidyl)imidazo[1,2-a]pyridin-3-yl]-N-(2,2,2-trifluoroethyl)benzamide]	100 to 500	10 to 100	> 500	100 to 500	10 to 100	> 500
COc1cc(-c2cnc3cc(C(C)(C)C(N)=O)ccn23)cc(OC)c1C(=O)NC1CC1 [Cpd 29, 4-[7-(2-amino-1,1-dimethyl-2-oxo-ethyl)imidazo[1,2-a]pyridin-3-yl]-N-cyclopropyl-2,6-dimethoxy-benzamide]	> 500	10 to 100	> 500			
CCNC(=O)c1c(OC)cc(-c2cnc3cc(C(C)(C)C#N)ccn23)cc1OC [Cpd 30, 4-[7-(1-cyano-1-methyl-ethyl)imidazo[1,2-a]pyridin-3-yl]-N-ethyl-2,6-dimethoxy-benzamide]	> 500	100 to 500	> 500	> 500	10 to 100	> 500
CCNC(=O)c1c(OC)cc(-c2cnc3cc(C(C)(C)C(N)=O)ccn23)cc1OC [Cpd 31, 4-[7-(2-amino-1,1-dimethyl-2-oxo-ethyl)imidazo[1,2-a]pyridin-3-yl]-N-ethyl-2,6-dimethoxy-benzamide]	> 500	100 to 500	> 500			
COc1cc(-c2cnc3cc(C(C)(C)C#N)ccn23)cc(OC)c1C(=O)NCC#N [Cpd 32, N-(cyanomethyl)-4-[7-(1-cyano-1-methyl-ethyl)imidazo[1,2-a]pyridin-3-yl]-2,6-dimethoxy-benzamide]	> 500	10 to 100	> 500	> 500	10 to 100	> 500
